{"source": "ChEMBL document CHEMBL1201862", "about": "“PubChem BioAssay data set” (2004)", "key": {"[1]": {"assay": "AlphaScreen signal interference compounds, dose response, artefact control for ARNT-TACC3 interaction inhibitor project, biochemical, luminescence, cherry-pick (AID 651705);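 further: AlphaScreen bead proximity signal that flags compounds interfering with the detection technology; potency reflects signal decrease which marks the compound as an assay artifact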", "type": "functional"}, "[2]": {"biological_target": "T1, Dual specificity protein phosphatase 6 (Rattus norvegicus, UniProt Q64346)", "T1 sequence (Q64346 whole entry)": "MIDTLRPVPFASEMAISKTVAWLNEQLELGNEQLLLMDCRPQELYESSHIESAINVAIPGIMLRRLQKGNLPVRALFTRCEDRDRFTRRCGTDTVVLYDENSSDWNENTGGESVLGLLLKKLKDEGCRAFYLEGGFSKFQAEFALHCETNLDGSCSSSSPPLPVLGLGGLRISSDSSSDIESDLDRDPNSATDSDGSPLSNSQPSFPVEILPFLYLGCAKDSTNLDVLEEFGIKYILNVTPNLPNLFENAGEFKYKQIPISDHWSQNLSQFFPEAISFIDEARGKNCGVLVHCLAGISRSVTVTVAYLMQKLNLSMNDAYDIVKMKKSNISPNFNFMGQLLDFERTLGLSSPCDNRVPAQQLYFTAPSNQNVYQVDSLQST", "assay": "MKP-3 phosphatase inhibitors, primary screen, biochemical, rat enzyme, in vitro (AID 425)"}, "[3]": {"biological_target": "T2, Tyrosine-protein phosphatase non-receptor type 22 (Homo sapiens, UniProt Q9Y2R2)", "T2 sequence (Q9Y2R2 whole entry)": "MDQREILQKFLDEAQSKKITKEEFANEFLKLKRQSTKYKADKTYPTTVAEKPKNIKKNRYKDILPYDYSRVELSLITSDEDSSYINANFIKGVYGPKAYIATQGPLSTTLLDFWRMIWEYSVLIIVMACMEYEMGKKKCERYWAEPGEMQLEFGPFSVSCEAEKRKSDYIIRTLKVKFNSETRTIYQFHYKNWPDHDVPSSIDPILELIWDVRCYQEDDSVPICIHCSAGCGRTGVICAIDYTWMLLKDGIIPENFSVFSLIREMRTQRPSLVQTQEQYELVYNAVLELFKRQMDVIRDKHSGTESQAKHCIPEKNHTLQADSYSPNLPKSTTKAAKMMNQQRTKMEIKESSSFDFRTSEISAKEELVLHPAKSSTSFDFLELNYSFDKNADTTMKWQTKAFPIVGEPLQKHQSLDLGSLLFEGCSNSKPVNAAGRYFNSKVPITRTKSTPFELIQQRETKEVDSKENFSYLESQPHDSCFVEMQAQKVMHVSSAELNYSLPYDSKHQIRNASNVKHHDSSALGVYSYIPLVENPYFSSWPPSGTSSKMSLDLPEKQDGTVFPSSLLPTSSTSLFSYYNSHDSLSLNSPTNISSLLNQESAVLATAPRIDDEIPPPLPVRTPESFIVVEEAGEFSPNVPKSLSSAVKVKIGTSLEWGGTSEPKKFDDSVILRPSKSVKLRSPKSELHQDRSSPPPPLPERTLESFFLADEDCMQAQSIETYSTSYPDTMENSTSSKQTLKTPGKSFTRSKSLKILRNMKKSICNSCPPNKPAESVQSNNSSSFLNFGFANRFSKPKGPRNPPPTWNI", "assay": "PTPN22 phosphatase inhibition, dose response, selectivity assay for STEP inhibitor project, biochemical (AID 624241)", "type": "functional"}, "[4]": {"biological_target": "Tyrosine-protein phosphatase non-receptor type 5 (Homo sapiens, UniProt P54829)", "sequence (P54829 whole entry)": "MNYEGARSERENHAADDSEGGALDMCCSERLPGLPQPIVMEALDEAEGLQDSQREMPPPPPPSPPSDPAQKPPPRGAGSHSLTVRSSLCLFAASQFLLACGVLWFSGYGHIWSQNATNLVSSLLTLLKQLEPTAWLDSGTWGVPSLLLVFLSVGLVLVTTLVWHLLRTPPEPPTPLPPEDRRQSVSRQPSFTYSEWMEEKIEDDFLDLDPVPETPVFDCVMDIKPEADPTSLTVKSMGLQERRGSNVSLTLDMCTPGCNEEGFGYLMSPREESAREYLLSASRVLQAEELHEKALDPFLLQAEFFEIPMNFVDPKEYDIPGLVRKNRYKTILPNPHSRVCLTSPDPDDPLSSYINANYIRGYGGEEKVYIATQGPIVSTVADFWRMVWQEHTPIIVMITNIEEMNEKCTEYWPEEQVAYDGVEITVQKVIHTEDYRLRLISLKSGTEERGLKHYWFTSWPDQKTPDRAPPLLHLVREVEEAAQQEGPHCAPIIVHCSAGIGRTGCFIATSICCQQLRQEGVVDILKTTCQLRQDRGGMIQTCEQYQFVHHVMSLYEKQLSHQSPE", "assay": "STEP phosphatase inhibitors, confirmation, biochemical, fluorescence intensity, uHTS hits (AID 602372)", "type": "functional", "settings": "read-out: IC50_Mean"}, "[5]": {"biological_target": "T3, Dual specificity protein phosphatase 3 (Homo sapiens, UniProt P51452)", "T3 sequence (P51452 whole entry)": "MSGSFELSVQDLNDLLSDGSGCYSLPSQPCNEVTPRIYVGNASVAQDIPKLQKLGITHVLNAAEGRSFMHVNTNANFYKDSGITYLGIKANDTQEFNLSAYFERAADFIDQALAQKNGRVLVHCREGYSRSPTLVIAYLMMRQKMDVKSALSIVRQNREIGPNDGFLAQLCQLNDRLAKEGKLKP", "assay": "VHR1 phosphatase inhibitors, biochemical (AID 1878)"}, "[6]": {"biological_target": "T3, Dual specificity protein phosphatase 3", "assay": "VHR1 phosphatase inhibitors, primary screen, biochemical, absorbance, uHTS (AID 1654)"}, "[7]": {"biological_target": "T4, Caspase-6 (Homo sapiens, UniProt P55212)", "T4 sequence (P55212 whole entry)": "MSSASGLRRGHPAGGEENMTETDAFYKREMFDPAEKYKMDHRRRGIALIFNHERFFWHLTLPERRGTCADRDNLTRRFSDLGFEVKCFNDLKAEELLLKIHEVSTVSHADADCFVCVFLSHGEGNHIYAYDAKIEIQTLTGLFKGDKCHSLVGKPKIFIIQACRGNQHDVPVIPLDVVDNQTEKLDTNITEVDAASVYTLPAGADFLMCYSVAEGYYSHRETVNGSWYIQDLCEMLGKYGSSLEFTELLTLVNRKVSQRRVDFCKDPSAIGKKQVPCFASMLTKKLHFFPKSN", "assay": "human caspase-6 inhibitors, dose response, biochemical, VEID-R110 fluorescence, cherry-pick (AID 720632)"}, "[8]": {"biological_target": "Genome polyprotein (dengue virus type 2, UniProt P29990)", "sequence (P29990 2492-3391 limits assumed)": "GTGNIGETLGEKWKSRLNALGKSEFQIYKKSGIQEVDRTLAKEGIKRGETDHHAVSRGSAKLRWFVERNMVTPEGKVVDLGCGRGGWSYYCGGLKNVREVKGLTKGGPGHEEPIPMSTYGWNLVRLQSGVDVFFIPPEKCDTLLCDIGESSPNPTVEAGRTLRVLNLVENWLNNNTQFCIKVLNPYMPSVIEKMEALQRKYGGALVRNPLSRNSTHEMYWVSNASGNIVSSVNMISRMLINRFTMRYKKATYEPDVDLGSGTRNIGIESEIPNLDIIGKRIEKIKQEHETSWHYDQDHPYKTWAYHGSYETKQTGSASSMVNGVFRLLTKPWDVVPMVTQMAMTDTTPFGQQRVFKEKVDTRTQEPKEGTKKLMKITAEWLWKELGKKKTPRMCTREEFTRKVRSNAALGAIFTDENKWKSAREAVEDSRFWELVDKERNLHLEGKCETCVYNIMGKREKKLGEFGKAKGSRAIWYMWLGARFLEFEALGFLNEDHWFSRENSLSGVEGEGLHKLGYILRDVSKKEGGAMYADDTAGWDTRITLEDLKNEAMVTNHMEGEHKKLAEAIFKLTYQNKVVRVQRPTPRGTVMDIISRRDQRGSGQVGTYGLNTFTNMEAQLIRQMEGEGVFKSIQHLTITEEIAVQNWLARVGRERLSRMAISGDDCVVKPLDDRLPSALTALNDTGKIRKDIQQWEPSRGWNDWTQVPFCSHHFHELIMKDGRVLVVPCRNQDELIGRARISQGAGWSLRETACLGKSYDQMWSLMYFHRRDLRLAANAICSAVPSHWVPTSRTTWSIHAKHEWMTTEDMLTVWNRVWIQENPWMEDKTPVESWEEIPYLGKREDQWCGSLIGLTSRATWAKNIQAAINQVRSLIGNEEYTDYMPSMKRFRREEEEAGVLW", "assay": "Dengue-2 NS5 methyltransferase inhibitors, primary screen, biochemical, confirmation dose response (AID 588689)", "type": "functional"}, "[9]": {"biological_target": "T5, Small ubiquitin-related modifier 1 (Homo sapiens, UniProt P63165)", "T5 sequence (P63165 whole entry)": "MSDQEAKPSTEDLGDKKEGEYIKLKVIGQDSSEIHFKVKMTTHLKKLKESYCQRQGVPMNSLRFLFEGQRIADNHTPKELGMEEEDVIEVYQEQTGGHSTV", "assay": "inhibitors of SUMO1 peptide binding, dose response, biochemical, fluorescence polarization, uHTS hits (AID 624382)", "type": "functional", "settings": "read-out: IC50_Mean"}, "[10]": {"biological_target": "T6, Carboxy-terminal domain RNA polymerase II polypeptide A small phosphatase 1 (Homo sapiens, UniProt Q9GZU7)", "T6 sequence (Q9GZU7 whole entry)": "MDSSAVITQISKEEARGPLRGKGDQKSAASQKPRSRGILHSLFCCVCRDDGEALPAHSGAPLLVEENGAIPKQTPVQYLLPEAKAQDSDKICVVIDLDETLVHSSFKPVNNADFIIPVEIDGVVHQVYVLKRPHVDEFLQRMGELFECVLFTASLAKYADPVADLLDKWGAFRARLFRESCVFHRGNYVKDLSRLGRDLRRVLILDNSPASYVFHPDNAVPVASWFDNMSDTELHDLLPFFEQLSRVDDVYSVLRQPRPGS", "assay": "inhibitors of CTDSP1, concentration-response testing, biochemical assay, absorbance-based, actives from ultra-high-throughput screening (AID 540297)", "type": "functional"}, "[11]": {"biological_target": "T3, Dual specificity protein phosphatase 3", "assay": "VHR phosphatase inhibition, dose response, selectivity assay for STEP inhibitor project, biochemical (AID 602374)", "type": "functional", "settings": "read-out: IC50_Mean"}, "[12]": {"biological_target": "T7, Low molecular weight phosphotyrosine protein phosphatase (Homo sapiens, UniProt P24666)", "T7 sequence (P24666 whole entry)": "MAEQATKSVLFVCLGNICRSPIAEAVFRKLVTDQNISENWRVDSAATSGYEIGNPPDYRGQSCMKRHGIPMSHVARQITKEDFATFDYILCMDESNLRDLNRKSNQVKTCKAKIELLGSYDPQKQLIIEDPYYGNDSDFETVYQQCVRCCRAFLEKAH", "type": "functional", "settings": "read-out: IC50_Mean"}, "[13]": {"biological_target": "Tyrosine-protein phosphatase non-receptor type 11 (Homo sapiens, UniProt Q06124)", "sequence (Q06124 whole entry)": "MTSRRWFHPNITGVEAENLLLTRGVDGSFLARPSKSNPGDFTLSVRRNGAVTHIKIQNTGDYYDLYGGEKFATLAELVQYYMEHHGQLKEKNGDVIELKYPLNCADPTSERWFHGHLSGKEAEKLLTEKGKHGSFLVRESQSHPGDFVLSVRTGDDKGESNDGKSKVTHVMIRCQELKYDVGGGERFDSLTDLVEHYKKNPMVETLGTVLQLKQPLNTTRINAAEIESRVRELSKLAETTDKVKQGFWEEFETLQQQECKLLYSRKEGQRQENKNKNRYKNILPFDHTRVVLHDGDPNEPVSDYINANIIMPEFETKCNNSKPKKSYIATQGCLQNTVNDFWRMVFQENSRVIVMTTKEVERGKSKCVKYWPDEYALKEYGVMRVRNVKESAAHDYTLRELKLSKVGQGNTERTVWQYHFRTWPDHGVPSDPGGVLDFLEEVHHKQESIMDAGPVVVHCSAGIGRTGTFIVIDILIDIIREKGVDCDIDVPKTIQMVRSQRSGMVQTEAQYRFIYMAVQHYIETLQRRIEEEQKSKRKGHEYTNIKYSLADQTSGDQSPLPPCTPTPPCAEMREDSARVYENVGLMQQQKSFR", "assay": "SHP2 phosphatase inhibition, dose response, selectivity assay for STEP inhibitor project, biochemical (AID 602367)", "type": "functional", "settings": "read-out: IC50_Mean"}, "[14]": {"biological_target": "T7, Low molecular weight phosphotyrosine protein phosphatase", "type": "functional", "settings": "read-out: IC50_Mean", "remark": "listed apart in the source"}, "[15]": {"biological_target": "T5, Small ubiquitin-related modifier 1", "assay": "inhibitors of SUMO1 partner interactions, dose response, biochemical, FRET (AID 624383)", "type": "functional", "settings": "read-out: IC50_Mean"}, "[16]": {"biological_target": "T8, Beta-lactamase (Pseudomonas aeruginosa, UniProt Q79MP6)", "T8 sequence (Q79MP6 whole entry)": "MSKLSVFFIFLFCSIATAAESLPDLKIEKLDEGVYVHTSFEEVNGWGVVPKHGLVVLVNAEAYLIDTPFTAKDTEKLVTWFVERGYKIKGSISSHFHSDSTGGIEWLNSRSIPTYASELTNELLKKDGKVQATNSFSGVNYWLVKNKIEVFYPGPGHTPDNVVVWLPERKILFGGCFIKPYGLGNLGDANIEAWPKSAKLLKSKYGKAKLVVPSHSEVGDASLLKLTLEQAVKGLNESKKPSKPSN", "assay": "IMP-1 metallo-beta-lactamase inhibitors, dose response, selectivity assay for VIM-2 inhibitor project, biochemical, epi-absorbance (AID 1920)"}, "[17]": {"biological_target": "T8, Beta-lactamase", "assay": "[…] counterscreen for selective VIM-2 inhibitors: dose response biochemical high throughput screening assay to identify inhibitors of IMP-1 metallo-beta-lactamase."}, "[18]": {"biological_target": "Beta-lactamase (Salmonella choleraesuis (strain SC-B67), UniProt Q5J463)", "sequence (Q5J463 whole entry)": "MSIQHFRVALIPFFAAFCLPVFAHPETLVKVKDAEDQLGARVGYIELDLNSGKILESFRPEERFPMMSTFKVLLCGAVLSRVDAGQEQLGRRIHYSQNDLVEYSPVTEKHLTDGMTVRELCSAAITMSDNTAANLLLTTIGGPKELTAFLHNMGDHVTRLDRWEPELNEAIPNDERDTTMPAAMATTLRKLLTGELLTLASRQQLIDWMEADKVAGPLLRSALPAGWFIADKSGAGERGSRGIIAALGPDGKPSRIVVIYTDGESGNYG", "assay": "Epi-absorbance-based counterscreen for selective VIM-2 inhibitors: dose response biochemical high throughput screening assay to identify inhibitors of TEM-1 serine-beta-lactamase."}, "[19]": {"biological_target": "T9, High affinity choline transporter 1 (Homo sapiens, UniProt Q9GZV3)", "T9 sequence (Q9GZV3 whole entry)": "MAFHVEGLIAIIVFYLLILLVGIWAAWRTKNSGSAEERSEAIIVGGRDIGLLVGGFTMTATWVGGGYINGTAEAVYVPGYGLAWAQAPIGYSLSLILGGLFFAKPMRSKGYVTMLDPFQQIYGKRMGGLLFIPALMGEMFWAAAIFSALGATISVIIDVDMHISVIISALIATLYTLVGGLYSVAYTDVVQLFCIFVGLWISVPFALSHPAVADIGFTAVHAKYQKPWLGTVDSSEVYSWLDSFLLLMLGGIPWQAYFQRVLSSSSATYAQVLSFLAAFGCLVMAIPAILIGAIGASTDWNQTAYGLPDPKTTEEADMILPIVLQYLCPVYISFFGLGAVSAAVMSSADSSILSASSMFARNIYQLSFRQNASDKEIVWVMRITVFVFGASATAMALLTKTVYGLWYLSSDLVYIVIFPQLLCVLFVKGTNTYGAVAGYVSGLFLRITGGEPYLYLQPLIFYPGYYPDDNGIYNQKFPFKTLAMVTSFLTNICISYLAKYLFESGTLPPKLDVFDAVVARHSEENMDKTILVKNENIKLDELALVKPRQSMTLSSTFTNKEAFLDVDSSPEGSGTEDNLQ", "assay": "CHT inhibitors, dose response, cell-based, 5-point CRC, membrane potential dye (AID 504840)", "type": "functional"}, "[20]": {"biological_target": "T9, High affinity choline transporter 1", "assay": "inhibitors of CHT choline uptake, dose response, cell-based, 3H-choline uptake, CHT LV-AA trafficking mutant, CRC (AID 602208)", "type": "functional"}, "[21]": {"biological_target": "T9, High affinity choline transporter 1", "assay": "CHT inhibitors, dose response, cell-based, 10-point CRC, membrane potential dye (AID 588401);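 further: membrane potential dye fluorescence of choline-evoked depolarization via CHT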", "type": "functional"}}, "note": "Activity calls are given as the source filed them.", "data": [{"smiles": "O=C(Oc1cccc2cccnc12)c1ccco1", "values": [{"measurement": "AC50", "setting": "[1]", "value": "131 µM (active)"}]}, {"smiles": "Cc1c(CCC(=O)O)c(=O)oc2c(C)c(OCc3cc4c(cc3Cl)OCO4)ccc12", "values": [{"measurement": "IC50", "setting": "[2]", "value": "78.7 µM (active)"}, {"measurement": "IC50", "setting": "[3]", "value": "9 µM (active)"}, {"measurement": "IC50", "setting": "[4]", "value": "3.97 µM (active)"}, {"measurement": "IC50", "setting": "[5]", "value": "2.99 µM (active)"}, {"measurement": "IC50", "setting": "[6]", "value": "17.4 µM (active)"}, {"measurement": "AC50", "setting": "[7]", "value": "7.15 µM (active)"}, {"measurement": "IC50", "setting": "[8]", "value": "51.7 µM (active)"}, {"measurement": "IC50", "setting": "[9]", "value": "> 66.6 µM (inactive)"}, {"measurement": "IC50", "setting": "[10]", "value": "3.17 µM (active)"}, {"measurement": "IC50", "setting": "[11]", "value": "1.67 µM (active)"}, {"measurement": "IC50", "setting": "[12]", "value": "24.9 µM (inactive)"}, {"measurement": "IC50", "setting": "[13]", "value": "1.51 µM (active)"}, {"measurement": "IC50", "setting": "[14]", "value": "8.04 µM (active)"}, {"measurement": "IC50", "setting": "[15]", "value": "10.3 µM (active)"}]}, {"smiles": "CCCCn1c(-c2ccoc2C)n[nH]c1=S", "values": [{"measurement": "IC50", "setting": "[16]", "value": "> 59.6 µM (inactive)"}, {"measurement": "IC50", "setting": "[17]", "value": "> 59.6 µM (inactive)"}, {"measurement": "IC50", "setting": "[18]", "value": "> 59.6 µM (inactive)"}]}, {"smiles": "CC1CCC(NC(=O)c2cccc(S(=O)(=O)NCc3ccccc3)c2)CC1", "note": "(stereo unspecified)", "values": [{"measurement": "IC50", "setting": "[19]", "value": "4.07 µM (active)"}, {"measurement": "IC50", "setting": "[20]", "value": "8.42 µM (active)"}, {"measurement": "IC50", "setting": "[21]", "value": "3.64 µM (active)"}]}]}
